Where “and” joins values, the source holds several entries; their conditions need not be identical. Equal entries are not always repeated. Structures can show the parent of a compound that is named as a salt. Where two headings read alike, the source gives them in different places.
How the values were obtained:
[1] = Hygroscopicity: change in weight after storage at different RH (%) for 24 hrs; assay type: physicochemical; conditions: for Deliquescence (in words): RH of 64%
Protocol: To evaluate the hygroscopicity of the powder and α-form crystals of deoxyspergualin hydrochloride, the change of the weight of each sample was measured after storage in different RH (%) for 24 hrs. To evaluate the hygroscopicity of the powder and β-form crystals of deoxyspergualin hydrochloride, the change in the weight of each sample was measured after storage in different RH (%) for 24 hrs. The hygroscopicity each of the Powder A and α-form crystals and β-form crystals of the above-identified application was evaluated by measuring the change in weight after storage in various RH(%) for 24 hrs.

[2] = Heat stability: undecomposed substance by HPLC after storage at 50° C. for 6 days; assay type: physicochemical
Protocol: To evaluate the heat stability of α-form crystals of deoxyspergualin hydrochloride in comparison with that of the powder, samples were stored at 50° C. for 6 days and were analyzed by high-pressure liquid chromatography (HPLC), and the amount of undecomposed substance was measured.
To evaluate the heat stability of β-form crystals of deoxyspergualin hydrochloride in comparison with that of the powder, samples were stored at 50° C. for 6 days, and analyzed by HPLC to measure the amount of undecomposed substance.
To evaluate the heat stability of the Powder A in comparison with those of α-form crystals and β-form crystals of the above-identified application, samples were stored at 50° C. for 6 days and then analyzed by HPLC to measure the amount of undecomposed substance.

N=C(N)NCCCCCCC(=O)NC(O)C(=O)NCCCCNCCCN (centres unmarked) [Powder, N-[4-(3-aminopropyl)aminobutyl]-2-(7-guanidinoheptanamide)-2-hydroxyethanamide trihydrochloride, reference compound]
Increase in weight ([1]; RH 14%): 1.5%
Increase in weight ([1]; RH 31%, trihydrochloride): 5.9%
Increase in weight ([1]; RH 43%, trihydrochloride): 9.1%
Increase in weight ([1]; RH 52%, trihydrochloride): 12.6%
Increase in weight ([1]; RH 64%, trihydrochloride): 17.9%
Increase in weight ([1]; RH 76%, trihydrochloride): 28.3%
Deliquescence (in words) ([1]; trihydrochloride): deliquesced
Amount of undecomposed substance ([2]; trihydrochloride, 8640 min): 89.8% and 83%

Cl.Cl.Cl.N=C(N)NCCCCCCC(=O)NC(O)C(=O)NCCCCNCCCN (centres unmarked) [Powder A, N-[4-(3-aminopropyl)aminobutyl]-2-(7-guanidinoheptanamido)-2-hydroxyethanamide trihydrochloride, reference compound]
Increase in weight ([1]; RH 31%): 5.0%
Increase in weight ([1]; RH 43%): 6.3%
Increase in weight ([1]; RH 52%): 7.4%
Increase in weight ([1]; RH 64%): 13.2%
Amount of undecomposed substance [2]: 59.7%

N=C(N)NCCCCCCC(=O)NC(O)C(=O)NCCCCNCCCN (stereo not drawn) [α-form crystals, N-[4-(3-aminopropyl)aminobutyl]-2-(7-guanidinoheptanamide)-2-hydroxyethanamide trihydrochloride]
Increase in weight ([1]; RH 31%, trihydrochloride): -0.6% and -0.8%
Increase in weight ([1]; RH 43%, trihydrochloride): -0.4%
Increase in weight ([1]; RH 52%, trihydrochloride): -0.1% and -0.2%
Increase in weight ([1]; RH 64%, trihydrochloride): 15.2% and 17.8%
Water absorption (in words) ([1]; RH of 52% or below): did not absorb water
Amount of undecomposed substance ([2]; trihydrochloride, 8640 min): 100.1% and 100.0%

N=C(N)NCCCCCCC(=O)NC(O)C(=O)NCCCCNCCCN (stereo not drawn) [β-form crystals, N-[4-(3-aminopropyl)aminobutyl]-2-(7-guanidinoheptanamide)-2-hydroxyethanamide trihydrochloride]
Increase in weight ([1]; RH 31%, trihydrochloride): 1.7% and 1.2%
Increase in weight ([1]; RH 43%, trihydrochloride): 2.6% and 2.1%
Increase in weight ([1]; RH 52%, trihydrochloride): 3.8% and 3.0%
Increase in weight ([1]; RH 64%, trihydrochloride): 7.3% and 6.1%
Increase in weight ([1]; RH 76%, trihydrochloride): 14.0%
Deliquescence (in words) ([1]; trihydrochloride): did not deliquesce
Amount of undecomposed substance ([2]; trihydrochloride, 8640 min): 100.6% and 100.2%
